In US20260083865A1, “PROSTATE SPECIFIC MEMBRANE ANTIGEN (PSMA) LIGANDS AND USE THEREOF” (priority 2022, published 2026):
Like-named read-outs stand apart in the source and are kept apart here. Numbered stars: 1 amine (or outer) side, 2 acyl side, 3 side chain; on linkers, the order of the positions; unused ones are H or OH. Bridge positions count the residues as written; N and C are the ends. Square brackets hold non-standard residues; d marks the D form. Peptide text beside a SMILES is read from it. * marks the point of attachment. Acetyl(1-DOTA-4-piperidyl) = O=C(O)CN1CCN(CC(=O)O)CCN(CC(=O)N2CCC(CC(=O)*)CC2)CCN(CC(=O)O)CC1; X3 = O=C(O)CN1CCN(CC(=O)O)CCN(CC(=O)NCCCOCCOCCOCCCN*)CCN(CC(=O)O)CC1; DOTA = O=C(O)CN1CCN(CC(=O)O)CCN(CC(=O)*)CCN(CC(=O)O)CC1; Phe(4-Cl) = N[C@@H](Cc1ccc(Cl)cc1)C(=O)O; Ethylenediamine = C(CN[*:2])N[*:1]; X1 = O=C(CC1CCN([*:1])CC1)[*:2]; Cit = NC(=O)NCCC[C@H](N)C(=O)O; Suc = O=C(CCC(=O)[*:2])[*:1]; Tle = CC(C)(C)[C@H](N)C(=O)O; Hexanoyl = CCCCCC(=O)*; Aib = CC(C)(N)C(=O)O

Legend:
[1] = target: T1, Fc-fusion protein of human PSMA (hPSMA-Fc) (Homo sapiens, UniProt Q04609); assay: Surface plasmon resonance assay (Biacore T200, single cycle kinetic); assay type: binding; conditions: hPSMA-Fc, 25° C., read-out: pKD CAT (converted)
T1 construct: purchased Acro Biosystems PSA-H5264
T1 sequence (Q04609 44-750 limits assumed): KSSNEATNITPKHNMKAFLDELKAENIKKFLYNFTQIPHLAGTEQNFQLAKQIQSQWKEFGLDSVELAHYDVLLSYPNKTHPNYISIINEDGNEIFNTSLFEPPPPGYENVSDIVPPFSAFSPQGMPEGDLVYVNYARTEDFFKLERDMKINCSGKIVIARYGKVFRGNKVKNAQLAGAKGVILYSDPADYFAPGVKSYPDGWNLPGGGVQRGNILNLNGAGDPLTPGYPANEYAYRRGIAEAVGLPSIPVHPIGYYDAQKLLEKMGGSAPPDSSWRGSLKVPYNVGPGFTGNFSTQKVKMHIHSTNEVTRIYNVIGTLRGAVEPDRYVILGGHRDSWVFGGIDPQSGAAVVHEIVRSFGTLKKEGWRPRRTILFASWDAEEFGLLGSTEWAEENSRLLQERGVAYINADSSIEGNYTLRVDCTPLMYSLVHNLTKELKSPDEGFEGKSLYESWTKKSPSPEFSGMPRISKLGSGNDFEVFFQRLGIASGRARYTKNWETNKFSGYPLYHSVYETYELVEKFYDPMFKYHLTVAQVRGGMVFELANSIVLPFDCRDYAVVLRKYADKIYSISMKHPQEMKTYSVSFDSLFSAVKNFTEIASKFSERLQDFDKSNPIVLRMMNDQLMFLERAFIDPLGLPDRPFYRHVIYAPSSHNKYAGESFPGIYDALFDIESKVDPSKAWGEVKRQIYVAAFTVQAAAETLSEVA
Summary of the method: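 KD, expressed as pKD, came from 1:1 Langmuir fits of reference- and buffer-blank-subtracted SPR data. The runs were single-cycle kinetics at 25° C in HBST/0.1% DMSO over human PSMA-Fc, captured to ~1000 RU on a peptide-coated CM5 surface and regenerated with 10 mM glycine pH 1.5.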

[2] = system: PC3-PIP tumor model; parameters: species or system mice; conditions: mouse, in vivo
Text: Radioactively labeled compounds can be detected by imaging methods such as SPECT and PET. Furthermore, the data acquired by such techniques can be confirmed by direct measurement of radioactivity contained in the individual organs prepared from an animal injected with a radioactively labeled compound of the disclosure. Thus, the biodistribution (the measurement of radioactivity in individual organs) of a radioactively labeled compound can be determined and analyzed. […] All animal experiments were conducted in compliance with the German animal protection laws. Male swiss or NMRI nude mice (6-8 weeks old, Janvier Labs, France) were inoculated with 5×10^6 PC3-PIP cells in the right shoulder. For selected compounds an additional model was used, here male NMRI nude mice (6-8 weeks old, Janvier Labs, France) were inoculated with 5×10^6 or/1×10^7 C4-2 cells in the right shoulder. When tumors reached an appropriate size, the mice received ˜30 MBq ^111In-labeled compounds of the disclosure (diluted to 100 μL with PBS) administered intravenously via the tail vein. Images were obtained on a NanoSPECT/computed tomography system (Mediso Medical Imaging Systems, Budapest, Hungary) using exemplarily the following acquisition and reconstruction parameters (Table 10). [table] Imaging data were saved as DICOM files and analysed using VivoQuant™ software (Invicro, Boston, USA). In brief, regions of interest (ROIs) were drawn based on computed tomography images for the relevant organs and tissue regions such as heart (estimate of blood pool, bps), kidney, and tumor. The resulting numeric data expressed as a percentage of injected dose per gram of tissue (% ID/g) are presented in FIGS. 3(a)-3(ii) for the PC3-PIP model and FIGS. 4(a)-4(r) for the C4-2 model. Bars show mean % ID/g values of two to three animals per time point. Error bars indicate the value range (minimum and maximum values).

[3] = target: T2, PSMA-expressing C4-2 cells (Homo sapiens, UniProt Q04609); assay: FACS binding assay (competition with 50 nM PSM-0183); conditions: read-out: pIC50 [C4-2] CAT (converted)
T2 construct: PSMA-expressing C4-2 cells (ATCC, Cat. No. CRL-3314) were cultured in RPMI-1640; host or cells: C4-2 cells
T2 sequence (Q04609 whole entry): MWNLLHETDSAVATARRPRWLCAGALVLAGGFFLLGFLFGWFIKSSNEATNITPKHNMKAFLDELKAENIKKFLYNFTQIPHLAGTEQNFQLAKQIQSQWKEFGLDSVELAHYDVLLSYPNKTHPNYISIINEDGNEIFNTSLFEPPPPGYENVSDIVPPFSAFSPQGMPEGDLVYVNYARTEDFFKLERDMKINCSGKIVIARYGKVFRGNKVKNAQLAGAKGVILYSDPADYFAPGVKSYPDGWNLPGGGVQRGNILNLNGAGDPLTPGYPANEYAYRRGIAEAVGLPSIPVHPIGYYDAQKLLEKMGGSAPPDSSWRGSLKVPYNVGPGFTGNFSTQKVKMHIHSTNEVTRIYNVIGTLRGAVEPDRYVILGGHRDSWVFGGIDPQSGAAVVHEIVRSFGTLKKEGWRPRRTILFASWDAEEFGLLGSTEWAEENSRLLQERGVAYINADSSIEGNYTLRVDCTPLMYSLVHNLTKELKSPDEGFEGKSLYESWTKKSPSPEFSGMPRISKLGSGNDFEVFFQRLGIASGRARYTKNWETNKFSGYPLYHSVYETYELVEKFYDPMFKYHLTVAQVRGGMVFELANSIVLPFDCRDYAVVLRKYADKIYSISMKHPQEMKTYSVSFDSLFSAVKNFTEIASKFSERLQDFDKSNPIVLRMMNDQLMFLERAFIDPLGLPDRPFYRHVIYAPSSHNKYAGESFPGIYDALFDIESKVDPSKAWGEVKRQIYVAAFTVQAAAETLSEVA
Summary of the method: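 Competition format: fluorescent tracer PSM-0183 (50 nM) displaced from PSMA on C4-2 cells by a test compound titration over 1 h at 4 °C. Bound tracer was quantified as flow-cytometric AF488 median fluorescence after washing. Four-parameter logistic fits of MFI data gave IC50 and pIC50.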

[4] = SPR, single cycle kinetic, category
[5] = FACS binding, C4-2 cells, competition with 50 nM PSM-0183, category

SMILES | Kd [1, 4] | AUC ratio [T/K] [2] | Tumor AUC [2] | IC50 [3, 5] | Kd ([1]; pKD category for PSMA SPR activity assay) | IC50 ([3]; pIC50 category of FACS binding, C4-2 cells) | Kd ([1]; PSMA SPR assay, pKD category) | IC50 ([3]; FACS binding, PSMA-expressing C4-2 cells, pIC50 category)
C[C@@H](O)[C@H](NC(=O)[C@@H](NC(=O)[C@@H]1CSSC[C@H](NC(=O)[C@H](Cc2ccccc2)NC(=O)C(C)(C)NC(=O)[C@@H](NC(=O)CCC(=O)NCCCOCCOCCOCCCNC(=O)CN2CCN(CC(=O)O)CCN(CC(=O)O)CCN(CC(=O)O)CC2)[C@@H](C)O)C(=O)N[C@@H](CCCCN)C(=O)N[C@@H](CCCNC(N)=O)C(=O)NC(C)(C)C(=O)N[C@@H](CC(N)=O)C(=O)N1)C(C)(C)C)C(N)=O [PSM-0234, DOTA-Ttds-Thr-Aib-Phe-[Cys-Lys-Cit-Aib-Asn-Cys]-Tle-Thr-NH2] ({X3-Suc}-T[Aib]FCK[Cit][Aib]NC[Tle]T-NH2; disulfide 4-9) | 12.6 to 126 nM | 0.64 | 62 % ID/g*h | 200 to 1260 nM |  |  |  | 
CC(=O)N[C@H](C(=O)NC(C)(C)C(=O)N[C@@H](Cc1ccccc1)C(=O)N[C@H]1CSSC[C@@H](C(=O)N[C@H](C(=O)N[C@H](C(=O)N2CCC(CC(=O)N[C@H](CCCCNC(=O)CN3CCN(CC(=O)O)CCN(CC(=O)O)CCN(CC(=O)O)CC3)C(N)=O)CC2)[C@@H](C)O)C(C)(C)C)NC(=O)[C@H](CC(N)=O)NC(=O)C(C)(C)NC(=O)[C@H](CCCNC(=N)N)NC(=O)[C@H](CCCCN)NC1=O)[C@@H](C)O [PSM-0428, Ac-Thr-Aib-Phe-[Cys-Lys-Arg-Aib-Asn-Cys]-Tle-Thr-Cmp-lys(DOTA)-NH2] (Ac-T[Aib]FCKR[Aib]NC[Tle]T[X1][dK](DOTA)-NH2; disulfide 4-9) |  | 1.2 | 170 % ID/g*h |  | < 12.6 nM | < 200 nM |  | 
C[C@@H](O)[C@H](NC(=O)CN1CCN(CC(=O)O)CCN(CC(=O)O)CCN(CC(=O)O)CC1)C(=O)NC(C)(C)C(=O)N[C@@H](Cc1ccccc1)C(=O)N[C@H]1CSSC[C@@H](C(=O)N[C@H](C(=O)NCCN)C(C)(C)C)NC(=O)[C@H](CC(N)=O)NC(=O)C(C)(C)NC(=O)[C@H](CCCNC(=N)N)NC(=O)[C@H](CCCCN)NC1=O [PSM-0199, DOTA-Thr-Aib-Phe-[Cys-Lys-Arg-Aib-Asn-Cys]-Tle-en] ({DOTA}-T[Aib]FCKR[Aib]NC[Tle]-Ethylenediamine; disulfide 4-9) | < 12.6 nM | 0.33 | 170 % ID/g*h | < 200 nM |  |  |  | 
CC(=O)N[C@H](C(=O)NC(C)(C)C(=O)N[C@@H](Cc1ccc(Cl)cc1)C(=O)N[C@H]1CSSC[C@@H](C(=O)N[C@H](C(=O)NCCNC(=O)CN2CCN(CC(=O)O)CCN(CC(=O)O)CCN(CC(=O)O)CC2)C(C)(C)C)NC(=O)[C@H](CC(N)=O)NC(=O)C(C)(C)NC(=O)[C@H](CCCNC(=N)N)NC(=O)[C@H](CCCCN)NC1=O)[C@@H](C)O [PSM-0269, Ac-Thr-Aib-Pcf-[Cys-Lys-Arg-Aib-Asn-Cys]-Tle-en-DOTA] (Ac-T[Aib][Phe(4-Cl)]CKR[Aib]NC[Tle]-{Ethylenediamine-DOTA}; disulfide 4-9) |  | 0.87 | 150 % ID/g*h |  |  |  | < 12.6 nM | < 200 nM
CCCCCC(=O)N[C@H](C(=O)NC(C)(C)C(=O)N[C@@H](Cc1ccc(Cl)cc1)C(=O)N[C@H]1CSSC[C@@H](C(=O)N[C@H](C(=O)N[C@H](C(=O)N[C@H](CCCCNC(=O)CC2CCN(C(=O)CN3CCN(CC(=O)O)CCN(CC(=O)O)CCN(CC(=O)O)CC3)CC2)C(N)=O)[C@@H](C)O)C(C)(C)C)NC(=O)[C@H](CC(N)=O)NC(=O)C(C)(C)NC(=O)[C@H](CCCNC(N)=O)NC(=O)[C@H](CCCCN)NC1=O)[C@@H](C)O [PSM-0239, Hex-Thr-Aib-Pcf-[Cys-Lys-Cit-Aib-Asn-Cys]-Tle-Thr-lys(DOTA-Cmp)-NH2] (Hexanoyl-T[Aib][Phe(4-Cl)]CK[Cit][Aib]NC[Tle]T[dK](Acetyl(1-DOTA-4-piperidyl))-NH2; disulfide 4-9) | < 12.6 nM | 1.2 | 210 % ID/g*h | < 200 nM |  |  |  | 
